Holding throughout (type): cell-based
Series [1] has as its system MDA-MB-231 (human breast adenocarcinoma). The series can be described thus: MTT cytotoxicity assay, MDA-MB-231. To be noted: MDA-MB-231 cells. The procedure:
(§1) In the present invention, garciesculentones A and C (compounds 1 and 2) are evaluated for their cytotoxicity against two human hepatoma carcinoma (SMMC-7721 and HepG2) and two human breast adenocarcinoma cell lines (MCF-7 and MDA-MB-231) using MTT assay, palcitaxel is used as positive control. […] In practice, an effective concentration of the tested compound to kill a target cancer cell in vitro is normally about double of the corresponding IC50 value. In addition, wound healing assay is conducted to test whether two novel compounds could affect cell motility.
(§2) Cytotoxicity Assay. Cytotoxic activities of all isolates were evaluated by MTT assay using SMMC-7721 (human hepatocellular carcinoma), HepG2 (human hepatocellular carcinoma), MCF-7 (human breast adenocarcinoma), and MDA-MB-231 (human breast adenocarcinoma). Paclitaxel was used as positive control. The detailed methodology for cytotoxicity assay has already been described in a previous report in Xia, Z.-X.; Zhang, D.-D.; Liang, S.; Lao, Y.-Z.; Zhang, H.; Tan, H.-S.; Chen, S.-L.; Wang, X.-H.; Xu, H.-X., Bioassay-Guided Isolation of Prenylated Xanthones and Polycyclic Acylphloroglucinols from the Leaves of Garcinia nujiangensis. Journal of Natural Products 2012.
A general note: Tetrazolium dyes change colour on reduction, which living cells bring about.

The test system of series [2] is SMMC-7721 (human hepatocellular carcinoma). The series can be described thus: MTT cytotoxicity assay, SMMC-7721. The following applies: SMMC-7721 cells. On the procedure:
as §1, §2

For series [3], the system named is HepG2 (human hepatocellular carcinoma). The series can be described thus: MTT cytotoxicity assay, HepG2. The following applies: HepG2 cells, read-out: Cytotoxicity IC50, HepG 2. On the procedure:
as §1, §2

The subject of series [4] is human esophageal carcinoma (ECA109) cells. The series can be described thus: Wound healing assay (cell migration). The following applies: 10 and 20 μg/mL, 36 hours. The procedure:
as §1
Wound healing assay. A wound healing assay was performed by using a modified procedure described previously in Jones, J. I.; Gockerman, A.; Busby, W. H., Jr.; Wright, G.; Clemmons, D. R., Insulin-like growth factor binding protein 1 stimulates cell migration and binds to the alpha 5 beta 1 integrin by means of its Arg-Gly-Asp sequence. Proc Nall Acad Sci USA 1993, 90 (22), 10553-7. Briefly, cells were plated in 24 wells plate at 70% confluence in conditioned medium. […] Cell migration into the wound surface was monitored by Olympus 1X71 microscopy and digitally photographed.

The subject of series [5] is MCF-7 (human breast adenocarcinoma). The series can be described thus: MTT cytotoxicity assay, MCF-7. On the procedure: as §1, §2

Like-named read-outs stand apart in the source and are kept apart here.

Usually IC50 stands for the concentration at which inhibition is half-maximal. For `CC(C)=CC[C@H]1C[C@@]23C[C@H](CC=C(C)C)C(C)(C)[C@@](CC=C(C)C)(C(=O)C(OC(=O)c4ccc(O)c(O)c4)=C2OC1(C)C)C3=O` (relative stereo) [Compound 1, Garciesculentone A], the concentration for half-maximal inhibition (IC50) in series [1] was 16.4 µM; in series [2], 10.8 µM; in series [3], 43.2 µM; in series [5] (MCF-7 cells) it was 20.3 µM. Moreover, in series [4], the “Cell migration into the wound area (antimigration effect)” value was “do not migrate into and completely close the wound”.
Take `CC(=O)O[C@H]1C(=O)[C@@]2(C)[C@H]([C@H](OC(=O)c3ccccc3)[C@]3(O)C[C@H](OC(=O)[C@H](O)[C@@H](NC(=O)c4ccccc4)c4ccccc4)C(C)=C1C3(C)C)[C@]1(OC(C)=O)CO[C@@H]1C[C@@H]2O` [Palcitaxel, Paclitaxel, reference compound]: the IC50 in series [1] (Homo sapiens) came out at 0.0082 µM; in series [2] (Homo sapiens), 0.0091 µM; in series [3] (Homo sapiens), 0.0046 µM; in series [5] (Homo sapiens, MCF7, MCF-7 cells) it was 0.0015 µM.
With Garciesculentone C [Compound 2], the half-maximal inhibitory concentration (IC50) in series [1] was determined as 21.5 µM; in series [2] it was 17.5 µM; in series [3], 21.9 µM; in series [5] (MCF-7 cells) it was 11.1 µM. Also, the “Cell migration into the wound area (antimigration effect)” value in series [4] was “do not migrate into and completely close the wound”.

Values taken from patent publication US20140194499A1, “Polyprenylated Benzoylphloroglucinols With Anticancer Activity” (Hong Kong Baptist University, priority 2013, published 2014).
